Key:
[1] = test system: IL-2 secretion by human effector memory T cells (TEM); assay: Effector memory T cells IL-2 release assay; assay type: cell-based; details: T-cell; human CD4+ effector memory T cells, CD3/CD28 bead stimulation, 24 h; read-out: CD4TC IL2 IC50
Method in brief: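 Human CD4+ effector memory T cells from healthy-donor buffy coats were stimulated with anti-CD3/CD28 Dynabeads and exposed to 10 semi-log compound doses (0.1% DMSO) for 24 h at 37 °C. Supernatant IL-2 was measured by HTRF, and IC50 came from a 4-parameter logistic fit to maximal IL-2. Viability was checked by flow cytometry.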

[2] = biological target: Recombinant human MALT-1 (amino acids 340-824) (Homo sapiens (Human), UniProt Q9UDY8); assay: MALT-1 inhibition assay (fluorogenic substrate Ac-LRSR-Rh110-DP); assay type: biochemical; details: recombinant human MALT-1, substrate Ac-LRSR-Rh110-DP
Method in brief: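 MALT-1 at 3 nM final was reacted with 10 μM Ac-LRSR-Rh110-DP, with substrate addition starting the reaction. Incubation ran 60 minutes at 25° C in the dark. Percent inhibition from fluorescence across doses was fitted to a 4-parameter logistic to give IC50.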

Sequence of Recombinant human MALT-1 (amino acids 340-824) (Q9UDY8 340-824): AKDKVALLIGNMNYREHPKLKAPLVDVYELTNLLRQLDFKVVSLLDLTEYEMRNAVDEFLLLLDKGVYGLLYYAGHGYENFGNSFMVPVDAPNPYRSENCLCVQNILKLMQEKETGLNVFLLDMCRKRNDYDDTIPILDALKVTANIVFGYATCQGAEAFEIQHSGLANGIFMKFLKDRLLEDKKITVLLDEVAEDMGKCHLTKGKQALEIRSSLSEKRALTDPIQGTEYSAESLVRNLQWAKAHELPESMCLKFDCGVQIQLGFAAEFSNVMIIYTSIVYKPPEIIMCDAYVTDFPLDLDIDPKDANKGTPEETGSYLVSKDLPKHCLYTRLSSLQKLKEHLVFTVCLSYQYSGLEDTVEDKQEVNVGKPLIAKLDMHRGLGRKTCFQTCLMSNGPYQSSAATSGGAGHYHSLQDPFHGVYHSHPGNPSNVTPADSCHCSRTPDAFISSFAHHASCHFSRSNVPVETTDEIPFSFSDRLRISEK

| Compound | IC50 [1] | IC50 [2] |
| --- | --- | --- |
| CN(C(=O)[C@H]1C[C@H]([S@+](C)(=N)[O-])C1)[C@@H](c1ccc(N2CCCc3c2cnc2cc(Cl)nn32)cc1)C(F)(F)F [CPD0073226, (1R,3s)-N-[(1S)-1-(4-{4-chloro-2,3,7,10-tetraazatricyclo[7.4.0.0^2,6]trideca-1(9),3,5,7-tetraen-10-yl}phenyl)-2,2,2-trifluoroethyl]-3-[(S)-imino(methyl)oxo-λ^6-sulfanyl]-N-methylcyclobutane-1-carboxamide] | 105 nM | 60 nM |
| CN(C(=O)CN1C(=O)COC1=O)[C@@H](c1ccc(N2CCCc3c2cnc2cc(Cl)nn32)cc1)C(F)(F)F [CPD0073237, N-[(1S)-1-(4-{4-chloro-2,3,7,10-tetraazatricyclo[7.4.0.0^2,6]trideca-1(9),3,5,7-tetraen-10-yl}phenyl)-2,2,2-trifluoroethyl]-2-(2,4-dioxo-1,3-oxazolidin-3-yl)-N-methylacetamide] | 513 nM | 174 nM |
| CN(C(=O)C1CN(S(C)(=O)=O)C1)[C@@H](c1ccc(N2CCCc3c2cnc2cc(Cl)nn32)cc1)C(F)(F)F [CPD0073238, N-[(1S)-1-(4-{4-chloro-2,3,7,10-tetraazatricyclo[7.4.0.0^2,6]trideca-1(9),3,5,7-tetraen-10-yl}phenyl)-2,2,2-trifluoroethyl]-1-methanesulfonyl-N-methylazetidine-3-carboxamide] | 174 nM | 87 nM |
| CN(C(=O)CN1CCOCC1)[C@@H](c1ccc(N2CCCc3c2cnc2cc(Cl)nn32)cc1)C(F)(F)F [CPD0073243, N-[(1S)-1-(4-{4-chloro-2,3,7,10-tetraazatricyclo[7.4.0.0^2,6]trideca-1(9),3,5,7-tetraen-10-yl}phenyl)-2,2,2-trifluoroethyl]-N-methyl-2-(morpholin-4-yl)acetamide] | 315 nM | 273 nM |
| CN(C(=O)[C@H]1C[C@H](S(C)(=O)=O)C1)[C@@H](c1ccc(N2CCCc3c2cnc2cc(Cl)nn32)cc1)C(F)(F)F [CPD0073501, trans-N-[(1S)-1-(4-{4-chloro-2,3,7,10-tetraazatricyclo[7.4.0.0^2,6]trideca-1(9),3,5,7-tetraen-10-yl}phenyl)-2,2,2-trifluoroethyl]-3-methanesulfonyl-N-methylcyclobutane-1-carboxamide] | 140 nM | 66 nM |
| CN(C(=O)[C@H]1C[C@@H](S(C)(=O)=O)C1)[C@@H](c1ccc(N2CCCc3c2cnc2cc(Cl)nn32)cc1)C(F)(F)F [CPD0073502, cis-N-[(1S)-1-(4-{4-chloro-2,3,7,10-tetraazatricyclo[7.4.0.0^2,6]trideca-1(9),3,5,7-tetraen-10-yl}phenyl)-2,2,2-trifluoroethyl]-3-methanesulfonyl-N-methylcyclobutane-1-carboxamide] | 104 nM | 61 nM |
| CN(C(=O)C1(C#N)CCS(=O)(=O)CC1)[C@@H](c1ccc(N2CCCc3c2cnc2cc(Cl)nn32)cc1)C(F)(F)F [CPD0073553, N-[(1S)-1-(4-{4-chloro-2,3,7,10-tetraazatricyclo[7.4.0.0^2,6]trideca-1(9),3,5,7-tetraen-10-yl}phenyl)-2,2,2-trifluoroethyl]-4-cyano-N-methyl-1,1-dioxo-1λ^6-thiane-4-carboxamide] | 77 nM | 50 nM |
| CN(C(=O)CN1CCS(=O)(=O)CC1)[C@@H](c1ccc(N2CCCc3c2cnc2cc(Cl)nn32)cc1)C(F)(F)F [CPD0073572, N-[(1S)-1-(4-{4-chloro-2,3,7,10-tetraazatricyclo[7.4.0.0^2,6]trideca-1(9),3,5,7-tetraen-10-yl}phenyl)-2,2,2-trifluoroethyl]-2-(1,1-dioxo-1λ^6-thiomorpholin-4-yl)-N-methylacetamide] | 253 nM | 163 nM |
| COC(=O)N1CCC(C(=O)N(C)[C@@H](c2ccc(N3CCCc4c3cnc3cc(Cl)nn43)cc2)C(F)(F)F)CC1 [CPD0073691, methyl 4-{[(1S)-1-(4-{4-chloro-2,3,7,10-tetraazatricyclo[7.4.0.0^2,6]trideca-1(9),3,5,7-tetraen-10-yl}phenyl)-2,2,2-trifluoroethyl](methyl)carbamoyl}piperidine-1-carboxylate] | 149 nM | 101 nM |

More lines, now with the values ahead:

| IC50 [1] | IC50 [2] | Compound |
| --- | --- | --- |
| 317 nM | 78 nM | CN(C(=O)C1CCS(=N)(=O)CC1)[C@@H](c1ccc(N2CC3(CC3)Cc3c2cnc2cc(Cl)nn32)cc1)C(F)(F)F (stereo partly drawn) [CPD0073761, N-[(1S)-1-[4-(4-chlorospiro[2,3,7,10-tetrazatricyclo[7.4.0.0^2,6]trideca-1(9),3,5,7-tetraene-12,1′-cyclopropane]-10-yl)phenyl]-2,2,2-trifluoro-ethyl]-1-imino-N-methyl-1-oxo-thiane-4-carboxamide] |
| 145 nM | 106 nM | CCN(C(=O)C1CCS(=O)(=O)CC1)[C@@H](c1ccc(N2CCCc3c2cnc2cc(Cl)nn32)cc1)C(F)(F)F [CPD0073918, N-[(1S)-1-(4-{4-chloro-2,3,7,10-tetraazatricyclo[7.4.0.0^2,6]trideca-1(9),3,5,7-tetraen-10-yl}phenyl)-2,2,2-trifluoroethyl]-N-ethyl-1,1-dioxo-1λ^6-thiane-4-carboxamide] |
| 112 nM | 61 nM | CN(C(=O)[C@@H]1CCC(=O)N1C)[C@@H](c1ccc(N2CCCc3c2cnc2cc(Cl)nn32)cc1)C(F)(F)F [CPD0073919, (2S)-N-[(1S)-1-(4-{4-chloro-2,3,7,10-tetraazatricyclo[7.4.0.0^2,6]trideca-1(9),3,5,7-tetraen-10-yl}phenyl)-2,2,2-trifluoroethyl]-N,1-dimethyl-5-oxopyrrolidine-2-carboxamide] |
| 94 nM | 60 nM | CN1C(=O)CC[C@@H]1C(=O)N(C)[C@@H](c1ccc(N2CCCc3c2cnc2cc(Cl)nn32)cc1)C(F)(F)F [CPD0073920, (2R)-N-[(1S)-1-(4-{4-chloro-2,3,7,10-tetraazatricyclo[7.4.0.0^2,6]trideca-1(9),3,5,7-tetraen-10-yl}phenyl)-2,2,2-trifluoroethyl]-N,1-dimethyl-5-oxopyrrolidine-2-carboxamide] |
| 67 nM | 74 nM | CC(=O)N1CCC(C(=O)N(C)[C@@H](c2ccc(N3CC[C@@H](C)c4c3cnc3cc(Cl)nn43)cc2)C(F)(F)F)CC1 [CPD0074558] |
| 257 nM | 102 nM | COc1ccc2ncc(Nc3ccc([C@H](N(C)C(=O)[C@H]4CC[S@](=N)(=O)CC4)C(F)(F)F)cc3)c([C@@H](C)OC)c2n1 [CPD0075563] |
| 175 nM | 89 nM | COc1ccc2ncc(Nc3ccc([C@H](N(C)C(=O)[C@H]4CC[S@@](=N)(=O)CC4)C(F)(F)F)cc3)c([C@@H](C)OC)c2n1 [CPD0075564] |
| 120 nM | 63 nM | CN(C(=O)[C@@H]1CC(=O)N1)[C@@H](c1ccc(N2CCCc3c2cnc2cc(Cl)nn32)cc1)C(F)(F)F [CPD0075870, (2S)-N-[(1S)-1-[4-(4-chloro-2,3,7,10-tetrazatricyclo[7.4.0.0^2,6]trideca-1(9),3,5,7-tetraen-10-yl)phenyl]-2,2,2-trifluoro-ethyl]-N-methyl-4-oxo-azetidine-2-carboxamide] |

— patent US20250051327A1, “MALT-1 MODULATORS” (EXSCIENTIA AI LIMITED, priority 2020, published 2025)
